Each structure is given as a SMILES string.

This experiment has as its target T1, BtGH53 (BT_4668), GH53 endo-beta-(1->4)-galactanase (Bacteroides thetaiotaomicron, UniProt Q89YR3).
T1 sequence (Q89YR3 23-353): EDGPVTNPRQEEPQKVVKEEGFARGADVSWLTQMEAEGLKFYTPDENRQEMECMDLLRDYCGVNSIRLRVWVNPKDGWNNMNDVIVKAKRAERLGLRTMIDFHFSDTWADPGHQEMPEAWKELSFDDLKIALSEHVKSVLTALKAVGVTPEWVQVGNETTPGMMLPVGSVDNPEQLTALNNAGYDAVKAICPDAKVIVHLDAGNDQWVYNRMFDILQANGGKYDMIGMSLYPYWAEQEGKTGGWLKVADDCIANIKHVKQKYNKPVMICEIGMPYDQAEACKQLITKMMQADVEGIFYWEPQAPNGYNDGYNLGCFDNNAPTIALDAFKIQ
The experiment can be described thus: TLC and HPAEC-PAD of hydrolysis products. The experiment is classed as biochemical. As to conditions: component of purified GOS mixture (TS0903), not tested singly; 20 mM Tris pH 7.5, 150 mM NaCl, 37 °C, 16 h.

Turning to `OC[C@H]1O[C@@H](O[C@@H]2[C@H](O)[C@@H](O)[C@H](O[C@H]3[C@H](O)[C@@H](O)C(O)O[C@@H]3CO)O[C@@H]2CO)[C@H](O)[C@@H](O)[C@H]1O` (stereo partly drawn) [compound 9, β-D-Galp-(1 → 4)-β-D-Galp-(1 → 4)-β-D-Glc], the “TLC and HPAEC-PAD of hydrolysis products” value is “BtGH53 hydrolyzes linear DP3 and higher GOS compounds”.

Source of the values: paper PMC5238430, “Prebiotic galactooligosaccharides activate mucin and pectic galactan utilization pathways in the human gut symbiont Bacteroides thetaiotaomicron” (Scientific Reports, 2017).
